Results as given in patent US5075307A, “Paraherquamide and dihydroparaherquamide as antihelminthic agents” (Merck & Co., Inc., priority 1987, dated 1991).

Legend:
Solubility = format: physicochemical
[1] = test system: H. contortus, O. circumcincta, T. axei, T. colubriformis, C. curticei, C. oncophora, and Oe. columbianum; assay: Fecal worm egg counts of treated infected sheep; format: in vivo; conditions: 3 treated sheep (6, 3 or 1 mg/kg P.O. single dose), four days following treatment, from 4,000-20,000 EPG
Protocol: (§1) Four "Parasite-free" sheep were exposed to infection with infective L3 of H. contortus, O. circumcincta, T. axei, T. colubriformis, C. curticei, C. oncophora, and Oe. columbianum. Twenty-four days after the last oral dose of infective larvae, when the infections were patent, three of the sheep were randomly assigned to treatment with either 6, 3 or 1 mg/kg body weight of paraherquamide as a single oral dose. The fourth sheep was maintained as an untreated control. All treatments were administered as solutions at a volume of 0.2 ml/kg P.O.: 6 mg/kg as a solution containing 30 mg/ml; 3 mg/kg as a solution containing 15 mg/ml; 1 mg/kg as a solution containing 5 mg/ml. The vehicle used was a mixture of dimethylsulfoxide: propylene glycol:miglyol (1.5:5:3.5).

[2] = test system: Dermacentor albipictus larvae; assay: Tick larvae immersion test; conditions: same suspension of crude extract as Example 13, 2 ml whole broth equivalent, immersed 10 minutes
Protocol: The same suspension used in Example 13 was used at a concentration of 2 ml whole broth equivalent to screen for activity against tick larvae. For this test Dermacentor albipictus larvae were immersed in 2 ml whole broth equivalent Paraherquamide for 10 minutes. The liquid was then removed with vacuum retaining the ticks on drug-impregnated filter paper.

Cooperia spp. = assay: Anthelmintic activity, single oral dose in experimentally infected sheep: residual worm burden vs untreated control; format: in vivo; conditions: 8 days after treatment
Protocol: as §1
(§2) Eight days following treatment the treated and control sheep were sacrificed and their residual worm burdens were recovered and identified using standard procedures. The worm burdens of the treated sheep were compared with that of the untreated control and the evaluations are tabulated as Table 1.

[3] = test system: Haemonchus contortus (benzimidazole resistant isolate); assay: as above; format: in vivo; conditions: 8 days after treatment
Protocol: as §1, §2

[4] = test system: Trichostrongylus colubriformis (benzimidazole resistant isolate); assay: as above; format: in vivo; conditions: 8 days after treatment
Protocol: as §1, §2

Trichostrongylus axei = assay: as above; format: in vivo; conditions: 8 days after treatment
Protocol: as §1, §2

Ostertagia circumcincta = assay: as above; format: in vivo; conditions: 8 days after treatment; for Efficacy, Ostertagia circumcincta L4: L4 stage; for Efficacy, Ostertagia circumcincta, Adult: adult stage
Protocol: as §1, §2

Cooperia oncophora = assay: as above; format: in vivo; conditions: 8 days after treatment
Protocol: as §1, §2

Cooperia curticei = assay: as above; format: in vivo; conditions: 8 days after treatment
Protocol: as §1, §2

[5] = test system: Oesophagostomum columbianum; assay: as above; format: in vivo; conditions: 8 days after treatment, control worm burden 7
Protocol: as §1, §2

**Q.** With `CN1C(=O)C23CC4C1(CN2CCC3(C)O)CC1(C(=O)Nc2c1ccc1c2OC=CC(C)(C)O1)C4(C)C` (stereo not shown) [Paraherquamide] as the compound, how does the “solubility in organic solvents” value (Solubility; organic solvents) read?
**A.** Its value is “soluble”.

**Q.** What about the solubility in water (Solubility; water) of the same compound?
**A.** The solubility in water was “slight solubility”.

**Q.** And the “fecal worm egg counts” value [1]?
**A.** Its value is “barely detectable or undetectable level”.

**Q.** What about the “activity against tick larvae” value [2] of the same compound?
**A.** Its value is “rapidly and completely active”.

**Q.** And the “Efficacy, Cooperia spp.” value (Cooperia spp.; 1.0 mg/kg P.O. single dose)?
**A.** The value was 3 (≥91% effective).

**Q.** And the “Efficacy, Cooperia spp.” value (Cooperia spp.; 3.0 mg/kg P.O. single dose)?
**A.** Its value is 3 (≥91% effective).

**Q.** What about the “Efficacy, Cooperia spp.” value (Cooperia spp.; 6.0 mg/kg P.O. single dose) of the same compound?
**A.** The value was 3 (≥91% effective).

**Q.** And the “Efficacy, Haemonchus contortus” value ([3]; 1.0 mg/kg P.O. single dose)?
**A.** Its value is 3 (≥91% effective).

**Q.** And the “Efficacy, Haemonchus contortus” value ([3]; 3.0 mg/kg P.O. single dose)?
**A.** The value was 3 (≥91% effective).

**Q.** What about the “Efficacy, Haemonchus contortus” value ([3]; 6.0 mg/kg P.O. single dose) of the same compound?
**A.** The value was 3 (≥91% effective).

**Q.** And the “Efficacy, Trichostrongylus colubriformis” value ([4]; 1.0 mg/kg P.O. single dose)?
**A.** Its value is 3 (≥91% effective).

**Q.** And the “Efficacy, Trichostrongylus colubriformis” value ([4]; 3.0 mg/kg P.O. single dose)?
**A.** The value was 3 (≥91% effective).

**Q.** And the “Efficacy, Trichostrongylus colubriformis” value ([4]; 6.0 mg/kg P.O. single dose)?
**A.** The value was 3 (≥91% effective).

**Q.** What about the “Efficacy, Trichostrongylus axei” value (Trichostrongylus axei; 1.0 mg/kg P.O. single dose) of the same compound?
**A.** The value was 3 (≥91% effective).

**Q.** And the “Efficacy, Trichostrongylus axei” value (Trichostrongylus axei; 3.0 mg/kg P.O. single dose)?
**A.** Its value is 3 (≥91% effective).

**Q.** What about the “Efficacy, Trichostrongylus axei” value (Trichostrongylus axei; 6.0 mg/kg P.O. single dose) of the same compound?
**A.** Its value is 3 (≥91% effective).

**Q.** And the “Efficacy, Ostertagia circumcincta L4” value (Ostertagia circumcincta; 1.0 mg/kg P.O. single dose)?
**A.** The value was 2 (76-90% effective).

**Q.** What about the “Efficacy, Ostertagia circumcincta L4” value (Ostertagia circumcincta; 3.0 mg/kg P.O. single dose) of the same compound?
**A.** The value was 3 (≥91% effective).

**Q.** And the “Efficacy, Ostertagia circumcincta L4” value (Ostertagia circumcincta; 6.0 mg/kg P.O. single dose)?
**A.** Its value is 3 (≥91% effective).

**Q.** What about the “Efficacy, Ostertagia circumcincta, Adult” value (Ostertagia circumcincta; 1.0 mg/kg P.O. single dose) of the same compound?
**A.** Its value is 3 (≥91% effective).

**Q.** What about the “Efficacy, Ostertagia circumcincta, Adult” value (Ostertagia circumcincta; 3.0 mg/kg P.O. single dose) of the same compound?
**A.** The value was 3 (≥91% effective).

**Q.** And the “Efficacy, Ostertagia circumcincta, Adult” value (Ostertagia circumcincta; 6.0 mg/kg P.O. single dose)?
**A.** The value was 2 (76-90% effective).

**Q.** And the “Efficacy, Cooperia oncophora” value (Cooperia oncophora; 1.0 mg/kg P.O. single dose)?
**A.** Its value is 3 (≥91% effective).

**Q.** What about the “Efficacy, Cooperia oncophora” value (Cooperia oncophora; 3.0 mg/kg P.O. single dose) of the same compound?
**A.** Its value is 3 (≥91% effective).

**Q.** And the “Efficacy, Cooperia oncophora” value (Cooperia oncophora; 6.0 mg/kg P.O. single dose)?
**A.** Its value is 3 (≥91% effective).

**Q.** And the “Efficacy, Cooperia curticei” value (Cooperia curticei; 1.0 mg/kg P.O. single dose)?
**A.** The value was 3 (≥91% effective).

**Q.** What about the “Efficacy, Cooperia curticei” value (Cooperia curticei; 3.0 mg/kg P.O. single dose) of the same compound?
**A.** Its value is 3 (≥91% effective).

**Q.** And the “Efficacy, Cooperia curticei” value (Cooperia curticei; 6.0 mg/kg P.O. single dose)?
**A.** The value was 3 (≥91% effective).

**Q.** What about the “Efficacy, Oesophagostomum columbianum” value ([5]; 1.0 mg/kg P.O. single dose) of the same compound?
**A.** Its value is 0 (0-50% effective).

**Q.** What about the “Efficacy, Oesophagostomum columbianum” value ([5]; 3.0 mg/kg P.O. single dose) of the same compound?
**A.** The value was 3 (≥91% effective).

**Q.** What about the “Efficacy, Oesophagostomum columbianum” value ([5]; 6.0 mg/kg P.O. single dose) of the same compound?
**A.** The value was 3 (≥91% effective).
